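Interpolation was linear, between the two tested concentrations surrounding the appropriate level; five concentrations were tested over 48 hours in 96-well plates. GI50 marks 50% less growth. TGI marks complete inhibition of growth.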
Assays:
Test in all cases: NCI-60 cell line screen, 48 h
SK-OV-3 ovarian = test system: SK-OV-3 ovarian
MDA-MB-231 breast = test system: MDA-MB-231 breast
SK-MEL-28 melanoma = test system: SK-MEL-28 melanoma
COLO 205 colon = test system: COLO 205 colon
CAKI-1 renal = test system: CAKI-1 renal
SF-295 CNS = test system: SF-295 CNS
HCT-15 colon = test system: HCT-15 colon
DU-145 prostate = test system: DU-145 prostate
OVCAR-5 ovarian = test system: OVCAR-5 ovarian
SNB-19 CNS = test system: SNB-19 CNS
MDA-MB-435 = test system: MDA-MB-435
OVCAR-3 ovarian = test system: OVCAR-3 ovarian
HS 578T breast = test system: HS 578T breast
HOP-92 NSCLC = test system: HOP-92 NSCLC
TK-10 renal = test system: TK-10 renal
NCI-H522 lung = test system: NCI-H522 lung
HCC-2998 colon = test system: HCC-2998 colon
NCI-H23 lung = test system: NCI-H23 lung
RXF 393 renal = test system: RXF 393 renal
MCF7 breast = test system: MCF7 breast
SK-MEL-5 melanoma = test system: SK-MEL-5 melanoma
MDA-MB-468 breast = test system: MDA-MB-468 breast
786-0 renal = test system: 786-0 renal
CCRF-CEM leukemia = test system: CCRF-CEM leukemia
T-47D breast = test system: T-47D breast
IGROV1 ovarian = test system: IGROV1 ovarian
KM12 colon = test system: KM12 colon
UACC-62 melanoma = test system: UACC-62 melanoma
A498 renal = test system: A498 renal
SNB-75 CNS = test system: SNB-75 CNS
NCI/ADR-RES ovarian = test system: NCI/ADR-RES ovarian
EKVX NSCLC = test system: EKVX NSCLC
A549 NSCLC = test system: A549 NSCLC
LOX IMVI melanoma = test system: LOX IMVI melanoma
SF-268 CNS = test system: SF-268 CNS
UACC-257 melanoma = test system: UACC-257 melanoma
MOLT-4 leukemia = test system: MOLT-4 leukemia
MALME-3M melanoma = test system: MALME-3M melanoma
NCI-H226 lung = test system: NCI-H226 lung
U251 CNS = test system: U251 CNS
SF-539 CNS = test system: SF-539 CNS
HCT-116 colon = test system: HCT-116 colon
HOP-62 NSCLC = test system: HOP-62 NSCLC
SN12C renal = test system: SN12C renal
SW-620 colon = test system: SW-620 colon
NCI-H460 lung = test system: NCI-H460 lung
RPMI-8226 leukemia = test system: RPMI-8226 leukemia
M14 melanoma = test system: M14 melanoma
PC-3 prostate = test system: PC-3 prostate
BT-549 breast = test system: BT-549 breast
SK-MEL-2 melanoma = test system: SK-MEL-2 melanoma
HL-60(TB) leukemia = test system: HL-60(TB) leukemia
UO-31 renal = test system: UO-31 renal
ACHN renal = test system: ACHN renal

Cc1ccc(C2CC(c3ccc(S(=O)(=O)NCCNc4nc(Nc5ccc(F)cc5)nc(N(C)C)n4)cc3)=Nc3c(N)nc(N)nc3N2)cc1 (stereo not drawn)
GI50 (SK-OV-3 ovarian): > 100 µM
TGI (SK-OV-3 ovarian): > 100 µM
GI50 (MDA-MB-231 breast): 3.86 µM
TGI (MDA-MB-231 breast): > 100 µM
GI50 (SK-MEL-28 melanoma): 26.9 µM
TGI (SK-MEL-28 melanoma): > 100 µM
GI50 (COLO 205 colon): 11.5 µM
TGI (COLO 205 colon): > 100 µM
GI50 (CAKI-1 renal): 8.06 µM
TGI (CAKI-1 renal): > 100 µM
GI50 (SF-295 CNS): 6.6 µM
TGI (SF-295 CNS): > 100 µM
GI50 (HCT-15 colon): 4.95 µM
TGI (HCT-15 colon): > 100 µM
GI50 (DU-145 prostate): > 100 µM
TGI (DU-145 prostate): > 100 µM
GI50 (OVCAR-5 ovarian): > 100 µM
TGI (OVCAR-5 ovarian): > 100 µM
GI50 (SNB-19 CNS): 13.1 µM
TGI (SNB-19 CNS): > 100 µM
GI50 (MDA-MB-435): 8.79 µM
TGI (MDA-MB-435): > 100 µM
GI50 (OVCAR-3 ovarian): 9.93 µM
TGI (OVCAR-3 ovarian): > 100 µM
GI50 (HS 578T breast): 19.4 µM
TGI (HS 578T breast): > 100 µM
GI50 (HOP-92 NSCLC): 2.54 µM
TGI (HOP-92 NSCLC): 21 µM
GI50 (TK-10 renal): > 100 µM
TGI (TK-10 renal): > 100 µM
GI50 (NCI-H522 lung): 21.3 µM
TGI (NCI-H522 lung): > 100 µM
GI50 (HCC-2998 colon): 2.93 µM
TGI (HCC-2998 colon): 41.1 µM
GI50 (NCI-H23 lung): 78.8 µM
TGI (NCI-H23 lung): > 100 µM
GI50 (RXF 393 renal): 2.27 µM
TGI (RXF 393 renal): 9.12 µM
GI50 (MCF7 breast): 3.08 µM
TGI (MCF7 breast): > 100 µM
GI50 (SK-MEL-5 melanoma): 4.98 µM
TGI (SK-MEL-5 melanoma): 20.6 µM
GI50 (MDA-MB-468 breast): 2.72 µM
TGI (MDA-MB-468 breast): 8.52 µM
GI50 (786-0 renal): 7.06 µM
TGI (786-0 renal): > 100 µM
GI50 (CCRF-CEM leukemia): 2.81 µM
TGI (CCRF-CEM leukemia): > 100 µM
GI50 (T-47D breast): 8.75 µM
TGI (T-47D breast): > 100 µM
GI50 (IGROV1 ovarian): 64.4 µM
TGI (IGROV1 ovarian): > 100 µM
GI50 (KM12 colon): 4.56 µM
TGI (KM12 colon): > 100 µM
GI50 (UACC-62 melanoma): 20.9 µM
TGI (UACC-62 melanoma): > 100 µM
GI50 (A498 renal): > 100 µM
TGI (A498 renal): > 100 µM
GI50 (SNB-75 CNS): > 100 µM
TGI (SNB-75 CNS): > 100 µM
GI50 (NCI/ADR-RES ovarian): > 100 µM
TGI (NCI/ADR-RES ovarian): > 100 µM
GI50 (EKVX NSCLC): 5.84 µM
TGI (EKVX NSCLC): > 100 µM
GI50 (A549 NSCLC): > 100 µM
TGI (A549 NSCLC): > 100 µM
GI50 (LOX IMVI melanoma): 2.09 µM
TGI (LOX IMVI melanoma): 5.11 µM
GI50 (SF-268 CNS): 7.53 µM
TGI (SF-268 CNS): > 100 µM
GI50 (UACC-257 melanoma): 26 µM
TGI (UACC-257 melanoma): > 100 µM
GI50 (MOLT-4 leukemia): 2.2 µM
TGI (MOLT-4 leukemia): 7.53 µM
GI50 (MALME-3M melanoma): 4.65 µM
TGI (MALME-3M melanoma): 33.2 µM
GI50 (NCI-H226 lung): > 100 µM
TGI (NCI-H226 lung): > 100 µM
GI50 (U251 CNS): 7.08 µM
TGI (U251 CNS): > 100 µM
GI50 (SF-539 CNS): 3.29 µM
TGI (SF-539 CNS): 78.9 µM
GI50 (HCT-116 colon): 3.81 µM
TGI (HCT-116 colon): > 100 µM
GI50 (HOP-62 NSCLC): > 100 µM
TGI (HOP-62 NSCLC): > 100 µM
GI50 (SN12C renal): > 100 µM
TGI (SN12C renal): > 100 µM
GI50 (SW-620 colon): 8.04 µM
TGI (SW-620 colon): > 100 µM
GI50 (NCI-H460 lung): 4.76 µM
TGI (NCI-H460 lung): > 100 µM
GI50 (RPMI-8226 leukemia): 2.94 µM
TGI (RPMI-8226 leukemia): > 100 µM
GI50 (M14 melanoma): 4.56 µM
TGI (M14 melanoma): > 100 µM
GI50 (PC-3 prostate): 3.33 µM
TGI (PC-3 prostate): > 100 µM
GI50 (BT-549 breast): 5.46 µM
TGI (BT-549 breast): 59.4 µM
GI50 (SK-MEL-2 melanoma): 11.2 µM
TGI (SK-MEL-2 melanoma): 77.7 µM
GI50 (HL-60(TB) leukemia): 2.94 µM
TGI (HL-60(TB) leukemia): 20.2 µM
GI50 (UO-31 renal): > 100 µM
TGI (UO-31 renal): > 100 µM
GI50 (ACHN renal): > 100 µM
TGI (ACHN renal): > 100 µM

From PubChem BioAssay (NCI)
